Patent publication US8361970B2, “Growth factor binding molecules” (University of South Florida, priority 2000, dated 2013)
Values joined by “and” are separate entries in the source; they are usually repeats but may differ in a detail not shown here. Equal values may be shown once. Read-outs that look alike come from different tables or passages of the source. Blank lines part the entries; values can stand above or below the compound they belong to.

Experiments:
[1] = tested on: PDGF-stimulated Erk1/Erk2 activation; test: Inhibition of PDGF-stimulated activation of MAPK Erk1/Erk2 (p44/p42) in NIH 3T3 cells; type: cell-based; settings: for Inhibition of PDGF-stimulated MAPKinase activation: FIG. 13
Description: (§1) Starved NIII 3T3 cells (PDGF-BB and PDGF-AA), NIH 3T3 cells overexpressing either EGFR (EGF) or Flk-1 (VEGF) are pre-treated with the indicated concentrations of GFB-111 for 5 minutes before 10 minutes of stimulation with PDGF-BB (10 ng/ml), PDGF-AA (10 ng/ml), EGF (100 ng/ml) and VEGF (50 ng/ml). Cell lysates are run on SDS-PAGE gels, then transferred to nitrocellulose and Western blotted with anti-phosphotyrosine (4G 10) or anti-phosphorylated Erk1/Erk2 (New England Biolabs).
(§2) In other experiments, starved NIH 3T3 cells (PDGF-AA, PDGF-BB, aFGF, bFGF), NIH 3T3 cells overexpressing EGFR. IGF-1R or Flk-1 and the human breast carcinoma SkBr3 that overexpresses ErbB2 (HRGβ) are pretreated with GFB-111 (100 μM) for 5 min before 10 min stimulation with the indicated growth factors at the concentrations shown above and aFGF (10 ng/ml), bFGF (50 ng/ml), IGF-1 (50 ng/ml) and HRGβ (10 ng/ml). Cell lysates are then immunoblotted with anti-phospho Erk1/Erk2 as described above.

[2] = tested on: PDGF-AA stimulated PDGF receptor phosphorylation and Erk1/Erk2 activation; test: PDGF-AA stimulation of PDGF receptor phosphorylation and Erk1/Erk2 activation in NIH 3T3 cells; type: cell-based; settings: NIH 3T3, PDGF-AA 10 ng/ml
Description: as §1

[3] = target: EGF (epidermal growth factor) (Homo sapiens, UniProt P01133); test: Binding to EGF by gel electrophoresis
Chain of EGF (epidermal growth factor) (P01133 971-1023 limits assumed, species assumed): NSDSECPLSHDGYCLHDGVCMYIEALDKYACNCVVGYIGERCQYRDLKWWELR

[4] = target: IGF-1 (insulin-like growth factor-1) (Homo sapiens, UniProt P05019); test: Binding to IGF-1 by gel electrophoresis
Chain of IGF-1 (insulin-like growth factor-1) (P05019 49-118 limits assumed, species assumed): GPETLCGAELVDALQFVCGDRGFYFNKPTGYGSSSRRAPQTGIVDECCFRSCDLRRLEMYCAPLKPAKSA

IGF-1 = target: T1, IGF-1 (Homo sapiens, UniProt P05019); test: Inhibition of [125I]-IGF-1 binding to NIH 3T3 cells overexpressing IGF-1R; settings: 10 μM
T1 construct: host or cells: NIH 3T3 cells transfected with the IGF-1R gene carry the receptor
T1 sequence (P05019 49-118 limits assumed, species assumed): as above
Description: (§3) NIH 3T3 (PDGF) or NIH 3T3 cells overexpressing either EGFR (EGF), IGFR (IGF) or Flk-1 (VEGF), are incubated with [^125I]-PDGF, [^125I]-EGF, [^125I]-IGF or [^125I]-VEGF, respectively (50,000 cpm per well) and increasing concentrations of GFB-111 or GFB-116. Cells are incubated at 4° C. for 1-3 h. After discarding media, the cells are washed 3 times with PBS and three times with Tris 25 mM pH 8.0, 1% T-X-100, 10% glycerol, 1% SDS. Lysates plus wash are counted. Excess of cold growth factors is used to obtain non-specific binding levels.
(§4) Whether GFB 111 can block [^125I]-PDGF-BB specific binding in NIH 3T3 cells is determined by pre-treatment of the PDGF-BB with increasing concentrations of GFB-111. FIG. 2C illustrates that in the absence of GFB-111, [^125I]-PDGF-BB is bound by NIH3T3 cells. However, pre-treatment with increasing concentrations of GFB-111, results in a concentration-dependent decrease in PDGF-BB binding.

VEGF = target: T2, VEGF (Homo sapiens, UniProt P15692); test: Inhibition of [125I]-VEGF binding to NIH 3T3 cells overexpressing VEGFR (Flk-1)
T2 construct: host or cells: NIH 3T3 cells overexpressing Flk-1 carry the receptor
T2 sequence (P15692 27-191 isoform P15692-4, species assumed): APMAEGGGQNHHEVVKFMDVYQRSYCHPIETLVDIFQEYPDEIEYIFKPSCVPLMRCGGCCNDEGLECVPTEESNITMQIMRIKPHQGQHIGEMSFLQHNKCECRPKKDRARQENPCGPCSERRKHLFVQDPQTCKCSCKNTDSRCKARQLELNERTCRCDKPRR
Description: as §3, §4

[5] = tested on: EGF-stimulated EGFR tyrosine phosphorylation and Erk1/Erk2 activation; test: EGF-stimulated EGFR tyrosine phosphorylation and Erk1/Erk2 activation in NIH 3T3 cells overexpressing EGFR; type: cell-based; settings: GFB-111 at concentrations as high as 100 μM
Description: as §1

[6] = tested on: bFGF-activation of Erk1/Erk2; test: bFGF activation of Erk1/Erk2 in NIH 3T3 cells; type: cell-based; settings: concentrations as high as 100 μM
Description: as §2

[7] = tested on: HRGβ-activation of Erk1/Erk2; test: HRGβ activation of Erk1/Erk2 in SkBr3 breast carcinoma cells overexpressing ErbB2; type: cell-based, human; settings: concentrations as high as 100 μM
Description: as §2

[8] = tested on: IGF-1-stimulated DNA synthesis; test: IGF-1-stimulated DNA synthesis ([3H]-thymidine incorporation) in NIH 3T3 overexpressing IGFR; type: cell-based; settings: concentrations as high as 100 μM
Description: Starved NIH 3T3 or NIH 3T3 overexpressing IGFR are treated for 16 hours with indicated concentrations of GFB-111 and either 10 ng/ml PDGF or 50 ng/ml IGF-1, respectively, then labeled for 2 hr (NIH 3T3) or 4 hr (IGFR) with ^3H-thymidine. Cells are then washed in PBS, lysed in 0.1N NaOH and spotted onto glass fiber filters. DNA is precipitated with ice cold ethanol then ^3H-thymidine incorporation quantified by scintillation counting.
The selectivity of PDGF-induced cellular responses, is evaluated by the selectivity of GFB-111 to inhibit growth factor-stimulated DNA synthesis using a [^3H]-thymidine incorporation assay. […] In contrast GFB-111 is ineffective at inhibiting IGF-1-stimulated DNA synthesis at concentrations as high as 100 μM (FIG. 4).

rat glioma C6 = test: Antitumor efficacy, C6 tumor in nude mice; type: in vivo
[9] = tested on: angiogenesis in U87-MG tumors; test: Angiogenesis: Factor VIII immunostaining and microvessel count in U87MG tumors; type: in vivo, nude mice; settings: for Microvessel count (Mean ± SD) 250X / Microvessel count (Mean ± SD) 400X: U87-MG tumor
Description: (§5) On the indicated termination day of each nude mouse experiment described above, (see also Table 2), the tumors are extracted and half frozen at −70° C., and half is fixed in 10% neutral buffered formalin for 6 hrs. After fixation the tissue samples are processed into paraffin blocks. Four micrometer-thick tissue sections are obtained from the paraffin blocks and stained with hematoxylin and eosin (H&E) (Richard-Allan Scientific, Kalamazoo, Mich.) using standard histologic techniques. Tissue sections are also subjected to immunostaining for Factor VIII using the avidin biotin peroxidase complex technique (Vectastatin Elite ABC Kit, Vector, Burlingame, Calif.). Rabbit polyclonal FVIII antibody (Von Willebrand Factor, Dako Corporation, Carpinteria, Calif.) is used at 1:400 dilution, following microwave antigen retrieval (4 cycles of 5 minutes each on high in 0.1M citrate buffer).

[10] = tested on: angiogenesis in C6 tumors; test: Angiogenesis: microvessel count in C6 tumors; type: in vivo, nude mice
Description: as §5

[11] = tested on: angiogenesis in DaOY tumors; test: Angiogenesis: microvessel count in DaOY tumors; type: in vivo, nude mice
Description: as §5

B16-F10 melanoma = B16-F10 melanoma tumor growth in immune-competent mice; type: in vivo; settings: immune-competent mouse model
[12] = tested on: PDGF-stimulated PDGFR tyrosine phosphorylation; test: Inhibition of PDGF-stimulated PDGFR tyrosine phosphorylation in NIH 3T3 cells (anti-phosphotyrosine Western blot); type: cell-based; settings: concentrations as high as 10 mM
[13] = NIH 3T3, PDGF stimulated, head p42/Erk2 (p42 for GFB-132 to 137), read-out: (IC50) Inhibition p42/Erk2

Compound: CCCCOc1c2cc(C(=O)Nc3cc4cc(c3)C(=O)NCC(=O)N[C@@H](CC(=O)O)C(=O)NCC(=O)N[C@@H](Cc3ccc(O)cc3)C(=O)NC4)cc1Cc1cc(C(=O)Nc3cc4cc(c3)C(=O)NCC(=O)N[C@@H](CC(=O)O)C(=O)NCC(=O)N[C@@H](Cc3ccc(O)cc3)C(=O)NC4)cc(c1OCCCC)Cc1cc(C(=O)Nc3cc4cc(c3)C(=O)NCC(=O)N[C@@H](CC(=O)O)C(=O)NCC(=O)N[C@@H](Cc3ccc(O)cc3)C(=O)NC4)cc(c1OCCCC)Cc1cc(C(=O)Nc3cc4cc(c3)C(=O)NCC(=O)N[C@@H](CC(=O)O)C(=O)NCC(=O)N[C@@H](Cc3ccc(O)cc3)C(=O)NC4)cc(c1OCCCC)C2 [GFB-111]
Inhibition of PDGF-stimulated MAPKinase activation [1]: inhibits | IC50 ([1]; NIH 3T3, FIG. 3A, read-out: IC50 PDGF-dependent activation of Erk1): 800 nM | IC50 ([1]; NIH 3T3, FIG. 3A, read-out: IC50 PDGF-dependent activation of Erk2): 1200 nM | IC50 [1, 13]: 2600 nM | PDGF-AA stimulation of PDGF receptor phosphorylation and Erk1/Erk2 activation [2]: blocked | Binding to EGF [3]: does not bind | Binding to IGF-1 [4]: does not bind | Effect on [125I]-IGF-1 binding (IGF-1): lack of significant effects | inhibition at 10 µM (VEGF): 50% | Effect on EGF-stimulated EGFR tyrosine phosphorylation and Erk1/Erk2 activation [5]: does not affect | bFGF-activation of Erk1/Erk2 [6]: minimally affected | HRGβ-activation of Erk1/Erk2 [7]: minimally affected | Inhibition of IGF-1-stimulated DNA synthesis [8]: ineffective | % Tumor growth inhibition (rat glioma C6; C6, 50 mpk, day in parentheses in cell): 54% (15) and 64% (15) and 46% (18) | Inhibition of C6 tumor growth in nude mice (rat glioma C6; mouse, in vivo): effective | Microvessel count (Mean ± SD) 250X ([9]; 100 mpk): 7.73 ± 2.61 | Microvessel count (Mean ± SD) 400X ([9]; 100 mpk): 5.20 ± 1.71 | Microvessel count (Mean ± SD) 250X ([9]; 200 mpk): 5.13 ± 3.10 | Microvessel count (Mean ± SD) 400X ([9]; 200 mpk): 3.07 ± 1.94 | Inhibition of angiogenesis ([9]; U87MG tumors): strongly | Factor VIII immunostaining in tumors ([9]; U87MG, day 32, 50, 100 and 200 mg per kg): decreased in a dose-dependent manner | Microvessel count (Mean ± SD) 250X ([10]; C6 tumor, 50 mpk): 14.27 ± 4.79 | Microvessel count (Mean ± SD) 400X ([10]; C6 tumor, 50 mpk): 7.97 ± 2.83 | Inhibition of angiogenesis ([10]; C6 tumors): to a lesser degree | Microvessel count (Mean ± SD) 250X ([11]; DaOY tumor, 50 mpk): 7.20 ± 2.52 | Microvessel count (Mean ± SD) 400X ([11]; DaOY tumor, 50 mpk): 4.80 ± 1.37 | Inhibition of angiogenesis ([11]; DaOY tumors): no effect

IC50 [1, 13]: 28000 nM
Compound: GKGK [GFB-116]
Inhibition of PDGF-stimulated MAPKinase activation [1]: does not | Inhibition of growth of B16-F10 melanoma (B16-F10 melanoma): effective | Inhibition of PDGF-stimulated PDGFR tyrosine phosphorylation [12]: does not inhibit
